# Data as given in patent publication US11345711B2, “8,9-dihydroimidazo[1,2-a]pyrimido[5,4-e]pyrimidin-5(6H)-ones” (IMPACT THERAPEUTICS (SHANGHAI), INC, priority 2016, dated 2022).
# Read-outs that look alike come from different tables or passages of the source.
# Experiments:
# Wee1 (h) = Wee1 (h) (Homo sapiens, UniProt P30291); assay: Wee1 kinase (h) detection method, [γ-33P]-ATP filter assay; format: biochemical
# LoVo cells = assay: MTT based cell viability assay on LoVo cells; settings: Homo sapiens, LoVo, 72 h, 3 d, read-out: IC50, growth inhibition of LoVo cells
# Method in brief: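 Inhibition of LoVo proliferation was derived as IC50 from a sigmoidal dose-response fit of cell survival. Readout was MTT (0.5 mg/mL, 4 h) with absorbance at 552/630/690 nm, after 3-day treatment at 37 °C. Eight-point series from 10 μM to 0.01 μM, DMSO control, 1% DMSO final.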
# NCI-H1299 cells = assay: MTT based cell viability assay on NCI-H1299 cells; settings: Homo sapiens, read-out: IC50, growth inhibition of NCI-H1299 cells
# Method in brief: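 Viability read-out was MTT reduction (0.5 mg/mL, 4 h, absorbance 552/630/690 nm) after 3-day compound exposure at 37 °C of NCI-H1299 cells seeded at 1000 per well. Dilutions spanned 10 μM–0.01 μM in DMSO, final DMSO 1‰. Survival-versus-concentration curves were fitted sigmoidally to give IC50.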
# Chain of Wee1 (h) (P30291 whole entry): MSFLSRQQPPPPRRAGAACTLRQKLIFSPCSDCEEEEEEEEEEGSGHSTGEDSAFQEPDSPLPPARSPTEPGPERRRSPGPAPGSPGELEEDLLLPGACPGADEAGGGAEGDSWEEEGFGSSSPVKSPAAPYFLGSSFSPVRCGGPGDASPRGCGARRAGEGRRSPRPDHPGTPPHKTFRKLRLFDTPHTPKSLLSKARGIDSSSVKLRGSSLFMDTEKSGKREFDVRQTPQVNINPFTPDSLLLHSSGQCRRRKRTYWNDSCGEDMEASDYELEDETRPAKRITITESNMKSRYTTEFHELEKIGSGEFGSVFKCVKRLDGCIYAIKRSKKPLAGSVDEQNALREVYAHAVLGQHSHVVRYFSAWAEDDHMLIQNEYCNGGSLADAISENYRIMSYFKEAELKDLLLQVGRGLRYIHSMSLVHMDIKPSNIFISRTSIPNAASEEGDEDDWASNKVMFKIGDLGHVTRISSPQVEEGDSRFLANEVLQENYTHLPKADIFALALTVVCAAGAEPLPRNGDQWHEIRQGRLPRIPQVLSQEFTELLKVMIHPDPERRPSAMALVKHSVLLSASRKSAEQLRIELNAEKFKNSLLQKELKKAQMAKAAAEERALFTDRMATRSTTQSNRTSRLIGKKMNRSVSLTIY
Structure (SMILES),Inh. (%) of Wee1 kinase enzyme activity (Wee1 (h); C 0.01 μm compound) [%],Inh. (%) of Wee1 kinase enzyme activity (Wee1 (h); C 0.1 μm compound) [%],Inh. (%) of Wee1 kinase enzyme activity (Wee1 (h); C 1 μm compound) [%],IC50 (LoVo cells) [nM],"IC50 (NCI-H1299 cells; NCI-H1299, NCI-H1299 cells) [nM]",IC50 (NCI-H1299 cells; NCI-H1299 cells) [nM]
"CN(C)C1CCN(c2ccc(Nc3ncc4c(n3)N3CCN=C3N(c3c(Cl)cccc3Cl)C4=O)cc2Cl)CC1 [Example 139, 6-(2,6-Dichlorophenyl)-2-((3-chloro-4-(4-(dimethylamino)piperidin-1-yl)phenyl)amino)-8,9-dihydroimidazo[1,2-a]pyrimido[5,4-e]pyrimidin-5(6H)-one]",31,81,95,45.6,85.9,
"CN(C)C1CCN(c2ccc(Nc3ncc4c(n3)N3CCN=C3N(c3c(Cl)cccc3Cl)C4=O)cc2)CC1 [Example 138, 6-(2,6-Dichlorophenyl)-2-((4-(4-(dimethylamino)piperidin-1-yl)phenyl)amino)-8,9-dihydroimidazo[1,2-a]pyrimido[5,4-e]pyrimidin-5(6H)-one]",22,77,96,199,170,
"CN(C)C1CCN(c2ccc(Nc3ncc4c(n3)N3CCN=C3N(c3c(F)cccc3Cl)C4=O)cc2Cl)CC1 [Example 117, 6-(2-Chloro-6-fluorophenyl)-2-((3-chloro-4-(4-(dimethylamino)piperidin-1-yl)phenyl)amino)-8,9-dihydroimidazo[1,2-a]pyrimido[5,4-e]pyrimidin-5(6H)-one]",22,84,98,66.2,103,
"COc1cc(Nc2ncc3c(n2)N2CCN=C2N(c2c(F)cccc2Cl)C3=O)cc(C)c1N1CCN(C)CC1 [Example 129, 6-(2-Chloro-6-fluorophenyl)-2-((3-methoxy-5-methyl-4-(4-methylpiperazin-1-yl)phenyl)amino)-8,9-dihydroimidazo[1,2-a]pyrimido[5,4-e]pyrimidin-5(6H)-one]",26,73,93,70.3,78.2,
"CN1CCN(c2ccc(Nc3ncc4c(n3)N3CCN=C3N(c3c(Cl)cccc3Cl)C4=O)cc2Br)CC1 [Example 145, 6-(2,6-Dichlorophenyl)-2-((3-bromo-4-(4-methylpiperazin-1-yl)phenyl)amino)-8,9-dihydroimidazo[1,2-a]pyrimido[5,4-e]pyrimidin-5(6H)-one]",21,72,97,84.9,,219
"CN1CCN(c2ccc(Nc3ncc4c(n3)N3CCN=C3N(c3c(F)cccc3Cl)C4=O)cc2F)CC1 [Example 44, 6-(2-Chloro-6-fluorophenyl)-2-((3-fluoro-4-(4-methylpiperazin-1-yl)phenyl)amino)-8,9-dihydroimidazo[1,2-a]pyrimido[5,4-e]pyrimidin-5(6H)-one]",23,75,93,37.1,597,
"C[C@@H]1CN(c2ccc(Nc3ncc4c(n3)N3CCN=C3N(c3c(F)cccc3Cl)C4=O)cc2C(F)(F)F)C[C@H](C)N1C [Example 49, 6-(2-Chloro-6-fluorophenyl)-2-((3-trifluoromethyl-4-((3S,5R)-3,4,5-trimethylpiperazin-1-yl)phenyl)amino)-8,9-dihydroimidazo[1,2-a]pyrimido[5,4-e]pyrimidin-5(6H)-one]",43,86,95,96.9,,543
